According to patent US20250213558A1, “T-TYPE CALCIUM CHANNEL MODULATORS COMPRISING A PIPERAZINE OR 1,4-DIAZEPANE CORE AND METHODS OF USE THEREOF” (Praxis Precision Medicines, Inc., priority 2022, published 2025):
Where two headings read alike, the source gives them in different places.

Target: T1, Human Cav3.1 calcium channel (Homo sapiens, UniProt O43497)
T1 construct: expressed in transfected cells; host or cells: HEK-293 natClytin/TASK1+Cav3.1 cell line
Test: Human Cav3.1 calcium channel patch clamp assay (SyncroPatch 384PE; single point and IC50, voltage dependent block)
Format: cell-based
Settings: for % Inhibition (Single Point Data): patch clamp
In short: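 Automated whole-cell patch clamp at room temperature, cells held at −120 mV; 100 ms step to −20 mV (resting block), then 1600 ms at −65 mV and a second −20 mV step (voltage-dependent block), every 15 s. Peak currents averaged over last 3 sweeps; % inhibition relative to nickel-sensitive current.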

[1] = Testing Conc 1.25, HEK-293 natClytin/TASK1+Cav3.1 cell line
[2] = voltage dependent block (VDB), HEK-293 natClytin/TASK1+Cav3.1 cell line, read-out: Cav3.1 IC50
[3] = Testing Conc 1, HEK-293 natClytin/TASK1+Cav3.1 cell line

T1 sequence (O43497 whole entry): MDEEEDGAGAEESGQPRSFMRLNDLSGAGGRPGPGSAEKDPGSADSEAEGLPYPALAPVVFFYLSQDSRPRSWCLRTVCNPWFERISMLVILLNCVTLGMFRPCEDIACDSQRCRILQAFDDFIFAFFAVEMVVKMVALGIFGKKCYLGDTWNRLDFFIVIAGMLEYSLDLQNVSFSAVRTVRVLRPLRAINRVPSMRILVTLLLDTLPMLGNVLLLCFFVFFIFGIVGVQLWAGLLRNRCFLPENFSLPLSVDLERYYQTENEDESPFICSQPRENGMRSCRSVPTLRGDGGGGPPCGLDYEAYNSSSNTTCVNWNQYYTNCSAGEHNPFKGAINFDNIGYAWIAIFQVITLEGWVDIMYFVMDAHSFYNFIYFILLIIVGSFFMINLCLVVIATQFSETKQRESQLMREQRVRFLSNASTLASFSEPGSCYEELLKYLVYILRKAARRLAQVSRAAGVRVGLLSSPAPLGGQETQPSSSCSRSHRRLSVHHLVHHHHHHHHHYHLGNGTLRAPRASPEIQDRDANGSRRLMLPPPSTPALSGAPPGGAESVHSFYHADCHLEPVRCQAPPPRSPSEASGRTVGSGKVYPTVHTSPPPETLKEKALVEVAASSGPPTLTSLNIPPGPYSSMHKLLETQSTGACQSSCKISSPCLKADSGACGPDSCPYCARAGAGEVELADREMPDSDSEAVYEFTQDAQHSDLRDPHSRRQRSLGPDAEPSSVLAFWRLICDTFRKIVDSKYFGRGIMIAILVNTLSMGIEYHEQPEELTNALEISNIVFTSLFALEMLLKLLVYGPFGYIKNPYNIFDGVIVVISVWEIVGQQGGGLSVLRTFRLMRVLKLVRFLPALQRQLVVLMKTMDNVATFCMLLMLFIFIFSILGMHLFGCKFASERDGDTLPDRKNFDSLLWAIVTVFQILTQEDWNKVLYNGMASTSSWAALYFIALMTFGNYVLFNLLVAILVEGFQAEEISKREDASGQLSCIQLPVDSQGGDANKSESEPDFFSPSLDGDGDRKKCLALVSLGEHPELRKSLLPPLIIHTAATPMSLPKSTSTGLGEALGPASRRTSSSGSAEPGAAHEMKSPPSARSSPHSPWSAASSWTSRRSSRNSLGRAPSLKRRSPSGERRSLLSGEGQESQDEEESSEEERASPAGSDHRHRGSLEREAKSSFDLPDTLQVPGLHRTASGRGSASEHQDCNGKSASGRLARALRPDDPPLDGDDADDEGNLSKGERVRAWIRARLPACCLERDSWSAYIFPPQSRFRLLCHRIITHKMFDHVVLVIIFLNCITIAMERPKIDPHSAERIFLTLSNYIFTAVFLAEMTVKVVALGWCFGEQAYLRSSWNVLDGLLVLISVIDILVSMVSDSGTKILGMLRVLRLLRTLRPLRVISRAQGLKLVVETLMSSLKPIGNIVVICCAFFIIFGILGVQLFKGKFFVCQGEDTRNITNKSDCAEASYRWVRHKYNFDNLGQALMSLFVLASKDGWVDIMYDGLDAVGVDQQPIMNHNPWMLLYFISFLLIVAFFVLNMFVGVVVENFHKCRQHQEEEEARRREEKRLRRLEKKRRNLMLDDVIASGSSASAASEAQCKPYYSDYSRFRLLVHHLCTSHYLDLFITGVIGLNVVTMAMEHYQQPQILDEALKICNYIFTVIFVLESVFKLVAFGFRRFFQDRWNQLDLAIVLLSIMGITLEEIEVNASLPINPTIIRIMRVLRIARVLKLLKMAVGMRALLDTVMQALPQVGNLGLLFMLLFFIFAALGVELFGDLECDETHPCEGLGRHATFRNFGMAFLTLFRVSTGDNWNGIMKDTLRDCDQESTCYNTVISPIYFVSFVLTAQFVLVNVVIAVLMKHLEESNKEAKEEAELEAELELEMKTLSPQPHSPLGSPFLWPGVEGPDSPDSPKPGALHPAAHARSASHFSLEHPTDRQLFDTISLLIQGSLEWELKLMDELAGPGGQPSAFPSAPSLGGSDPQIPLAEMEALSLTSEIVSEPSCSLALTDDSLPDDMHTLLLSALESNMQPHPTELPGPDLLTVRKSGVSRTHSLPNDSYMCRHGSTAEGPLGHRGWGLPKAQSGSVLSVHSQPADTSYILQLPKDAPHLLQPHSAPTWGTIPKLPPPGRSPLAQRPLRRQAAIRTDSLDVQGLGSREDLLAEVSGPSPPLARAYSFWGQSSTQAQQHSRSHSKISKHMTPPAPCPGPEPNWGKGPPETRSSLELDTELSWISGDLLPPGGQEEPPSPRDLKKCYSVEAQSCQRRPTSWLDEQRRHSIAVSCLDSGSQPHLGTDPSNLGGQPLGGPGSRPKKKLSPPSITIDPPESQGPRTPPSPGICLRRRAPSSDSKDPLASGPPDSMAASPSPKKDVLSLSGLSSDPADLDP

SMILES | % Inhibition (Single Point Data) [1] [%] | IC50 [2] [nM] | IC50 [nM] | % Inhibition (Single Point Data) [3] [%]
OC1(CCN2C3CCC2CN(Cc2nc4c(Cl)cc(F)cc4[nH]2)C3)CCCC1 [Compound 92] | 98.505 | 175 | – | –
CC(C)(C)NC(=O)CN1C[C@H]2COC[C@@H](C1)[C@H]2CC(=O)Nc1cc(F)cc(Cl)c1 [Compound 371] | – | 1960 | – | –
CC(C)(CCN1C2CC1CN(Cc1nc3c(Cl)cc(F)cc3[nH]1)C2)C(F)(F)F [Compound 172] | 94.964 | – | – | –
CC1(C)CN(C(=O)CN2C3CCC2CN(Cc2nc4c(Cl)cc(F)cc4[nH]2)C3)C1 [Compound 91] | 97.882 | – | – | –
O=C(CN1CC2CC(C1)N2CCC1CCOCC1)NC12CC3CC(CC(C3)C1)C2 [Compound 292] | 11.934 | 4770 | – | –
O=C(CN1C[C@@H]2C[C@H]1CN2CC(=O)NC1(C(F)(F)F)CC1)Nc1cc(F)c(F)c(Cl)c1 [Compound 347] | – | < 78.2 | – | –
CC(C)(C)NC(=O)CN1C2CC1CN(CC(=O)Nc1ccc(F)c(C(F)(F)F)c1)C2 [Compound 249] | 99.326 | 1010 | – | –
O=C(CN1C[C@@H]2C[C@H]1CN2CC(=O)NC1(C(F)(F)F)COC1)NC12CC3CC(CC(C3)C1)C2 [Compound 319] | 23.628 | 2080 | – | –
Cc1cc(Cl)cc(NC(=O)CN2C[C@@H]3C[C@H]2CN3CC(=O)NC(C)(C)C)c1 [Compound 283] | 94.657 | 140 | – | –
CC(C)(C)NC(=O)CN1CC2CCC1CCN2Cc1nc2c(Cl)cc(F)cc2[nH]1 (centres unmarked) [Compound 74] | 72.584 | 575 | – | –
COC1(CCN2C3CCC2CN(Cc2nc4c(Cl)cc(F)cc4[nH]2)C3)CCCC1 [Compound 89] | 98.148 | – | – | –
COc1cc(F)cc2[nH]c(CN3CC4CC(C3)N4CCC3CCC(F)(F)CC3)nc12 [Compound 158] | 92.557 | 148 | – | –
CC(C)(C)NC(=O)CN1C2CCC1CN(Cc1nc3c(Cl)ccc(F)c3[nH]1)C2 [Compound 185, N-tert-butyl-2-[3-[(4-chloro-7-fluoro-1H-benzimidazol-2-yl)methyl]-3,8-diazabicyclo[3.2.1]octan-8-yl]acetamide] | 99.412 | – | < 78.2 | –
CC(C)(C)NC(=O)CN1C2CC1CN(Cc1nc3c(F)ccc(F)c3[nH]1)C2 [Compound 165] | 87.314 | – | – | –
CC(C)(C)NC(=O)CN1CCCN(Cc2nc3c(Cl)cc(F)cc3[nH]2)CC1 [Compound 70] | 87.175 | 545 | – | –
CC(C)(C)NC(=O)CN1C2CC1CN(CC(=O)NC13CC4CC(CC(C4)C1)C3)C2 [Compound 258] | 91.927 | 410 | – | –
CC(C)(NC(=O)CN1C2CC1CN(CC(=O)Nc1cc(F)cc(Cl)c1)C2)C(F)(F)F [Compound 129] | 89.48 | 222 | – | –
CN(C(=O)CN1C2CCC1CN(Cc1nc3c(Cl)cc(F)cc3[nH]1)C2)C(C)(C)C(=O)O [Compound 87] | 7.971 | – | – | –
CC(C)(C)NC(=O)CN1C[C@@H]2C[C@H]1CN2CC(=O)Nc1ccc(F)c(OC(F)F)c1 [Compound 247] | 97.344 | – | – | –
CC(C)(C)NC(=O)CN1C2CC1CN(CC(=O)Nc1cc(F)c(F)c(Cl)c1)C2 [Compound 350] | – | < 78.2 | – | –

SMILES | % Inhibition (Single Point Data) [1] [%] | IC50 [2] [nM] | IC50 [nM] | % Inhibition (Single Point Data) [3] [%]
CC(C)(C)NC(=O)CN1C[C@@H]2C[C@H]1CN2CC(=O)Nc1cc(F)cc(OC(F)F)c1 [Compound 22] | 97.77 | < 78.2 | – | –
O=C(CN1CCN(CC(=O)NC2(C(F)(F)F)CC2)CC1)Nc1cc(F)cc(OC(F)F)c1 [Compound 54] | 39.211 | 1560 | – | –
CC(C)(C)NC(=O)CN1C2CC1CN(c1nc3c(Cl)cc(F)cc3[nH]1)C2 [Compound 209] | 24.65 | 5090 | – | –
CC(C)(C)NC(=O)CN1C2CC1CN(Cc1nc3c(OC(F)F)ccc(F)c3[nH]1)C2 [Compound 173] | 94.854 | – | < 78.2 | –
COc1cc(F)cc(NC(=O)CN2C[C@@H]3C[C@H]2CN3CC(=O)NC2(C(F)(F)F)CC2)c1 [Compound 320] | 87.599 | 185 | – | –
CC(C)(C(=O)NCCN1C2CC1CN(CC(=O)Nc1cc(F)cc(Cl)c1)C2)C(F)(F)F [Compound 230] | 96.987 | – | – | –
COc1cc(F)cc2[nH]c(CN3CC4CC(C3)N4CC(=O)NC(C)(C)C)nc12 [Compound 164] | 84.695 | – | – | –
CN(C(=O)CN1C2CC1CN(Cc1nc3c(Cl)cc(F)cc3[nH]1)C2)C(C)(C)CO [Compound 128] | 18.511 | – | – | –
Cc1cc(NC(=O)CN2CCN(CC(=O)NC(C)(C)C)CC2)n(C)n1 [Compound 39] | – | – | – | 35.477
CC(C)(C)NC(=O)CN1CCCN(CC(=O)Nc2cc(F)cc(Cl)c2)C(=O)C1 [Compound 36] | – | – | – | 45.763
CN(C(=O)CN1C2CC1CN(Cc1nc3c(Cl)cc(F)cc3[nH]1)C2)C1(C)CCC1 [Compound 100] | 88.827 | – | – | –
Fc1cc(Cl)c2nc(CN3CC4CC(C3)N4CC3(F)CCC(F)(F)CC3)[nH]c2c1 [Compound 152] | 70.533 | – | < 78.2 | –
CC1(C)CCN(C(=O)CN2C3CCC2CN(Cc2nc4c(Cl)cc(F)cc4[nH]2)C3)C1 [Compound 93] | 93.884 | 284 | – | –
CC(C)(C)CCCN1C2CC1CN(Cc1nc3c(Cl)cc(F)cc3[nH]1)C2 [Compound 107] | 101.43 | – | < 78.2 | –
CC(C)(C)NC(=O)CN1C[C@@H]2C[C@H]1CN2CC(=O)NC12CC3CC(CC(Cl)(C3)C1)C2 [Compound 344] | 79.298 | 417 | – | –
CC(C)(C)NC(=O)CN1CCN(Cc2cnc(-c3cc(F)cc(Cl)c3)[nH]2)CC1 [Compound 31, N-tert-butyl-2-[4-[[2-(3-chloro-5-fluoro-phenyl)-1H-imidazol-5-yl]methyl]piperazin-1-yl]acetamide] | – | 409 | – | 75.738
O=C(CN1CC2CC(C1)N2CCNC(=O)C1(C(F)(F)F)CC1)Nc1cc(F)cc(Cl)c1 [Compound 232] | 98.914 | 138 | – | –
CC(C)(C)NC(=O)CN1C[C@@H]2C[C@H]1CN2CC(=O)Nc1cc(Cl)cc(Cl)c1 [Compound 272] | 98.544 | 71.2 | – | –
Cc1cccc2[nH]c(C(C)N3CC4CCC(C3)N4CC(=O)NC(C)(C)C)nc12 (centres unmarked) [Compound 198] | 71.858 | 415 | – | –
CC(C)(C)NC(=O)CN1C[C@@H]2CC[C@H]1CN2CC(=O)Nc1ccc(F)c(Cl)c1 [Compound 271] | 70.509 | 581 | – | –

SMILES | % Inhibition (Single Point Data) [1] [%] | IC50 [2] [nM] | IC50 [nM] | % Inhibition (Single Point Data) [3] [%]
CC(C)(C)NC(=O)CN1CC2CC1CN2CC(=O)Nc1cc(Cl)ccc1F (centres unmarked) [Compound 48] | 28.07 | 1340 | – | –
CC(C)(C)CCN1CCN(Cc2nc3c(Cl)cc(F)cc3[nH]2)CC1 [Compound 73] | 84.745 | 188 | – | –
Cc1cc(CNC(=O)CN2CC3CC(C2)N3CC(=O)NC(C)(C)C)nn1-c1ccccc1 [Compound 273] | 6.1482 | – | – | –
CC(C)(C)NC(=O)CN1CCC(=O)N(CC(=O)Nc2cc(F)cc(Cl)c2)CC1 [Compound 37] | – | – | – | 25.144
CN(CCN1C2CC1CN(Cc1nc3c(Cl)cc(F)cc3[nH]1)C2)C(=O)C1(C)CC1 [Compound 145] | 83.5 | – | – | –
COc1cc(NC(=O)CN2CC3CC(C2)N3CC(=O)NC2(C(F)(F)F)CC2)ccc1Cl [Compound 332] | 101.57 | – | – | –
CC(C)(C)NC(=O)CN1C2CC1CN(CC(=O)Nc1cc(F)c(F)c(OC(F)F)c1)C2 [Compound 360] | – | 76 | – | –
COCC1CN(CC(=O)NC(C)(C)C)CCN1CC(=O)Nc1cc(F)cc(Cl)c1 (centres unmarked) [Compound 42] | – | 627 | – | 62.5
O=C(CN1C[C@H]2C[C@@H]1CN2CC(=O)NC1(C(F)(F)F)CC1)Nc1cc(F)cc(Cl)c1 [Compound 20] | 56.816 | 1020 | – | –
COc1ccc(Cl)c2nc(CN3CC4CC(C3)N4CC(=O)NC(C)(C)C(F)(F)F)[nH]c12 [Compound 136] | 100.03 | – | – | –
Cc1cc(Cl)cc(NC(=O)CN2C[C@@H]3C[C@H]2CN3CC(=O)NC2(C(F)(F)F)CC2)c1 [Compound 327] | 87.352 | 289 | – | –
CC(C)(C)NC(=O)CN1C2CCC1CN(Cc1nc3c(Cl)cc(C#N)cc3[nH]1)C2 [Compound 191] | 97.531 | – | – | –
CC(C)(NC(=O)CN1CC2CC1CN2CC(=O)Nc1cc(F)cc(Cl)c1)C(F)(F)F (centres unmarked) [Compound 47] | 89.371 | 33.7 | – | –
O=C(CN1CC2CC(C1)N2CC(=O)NC1(C(F)(F)F)CC1)Nc1ccc(F)c(C(F)F)c1 [Compound 252] | 72.234 | 579 | – | –
O=C(CN1CC2CC(C1)N2CCNC(=O)C1(C(F)(F)F)CCC1)Nc1cc(F)cc(Cl)c1 [Compound 229] | 89.382 | – | – | –
CC(C)(C)NC(=O)CN1C2CC1CN(Cc1nc3c(Cl)cc(N)cc3o1)C2 [Compound 111] | 35.454 | – | – | –
Cn1nc(NC(=O)CN2CCN(CC(=O)NC(C)(C)C)CC2)c2ccccc21 [Compound 40] | – | – | – | 17.386
Fc1cc(Cl)c2nc(CN3CCN(Cc4cc5ccccc5[nH]4)CC3)[nH]c2c1 [Compound 72] | 81.94 | 395 | – | –
O=C(CN1CC2CC(C1)N2CC(=O)NC1(C(F)(F)F)CC1)Nc1cc(F)cc(Cl)c1 [Compound 170] | 96.908 | – | – | –
